Measurements from US20250017252A1, “Fatty acids for boostering ketogenic diet” (N.V. Nutricia, priority 2022, published 2025).
“Also recorded” adds a separate entry of the source.

Legend:
Assay type in all cases: cell-based
[1] = test system: mouse liver cells (Hepa1-6 cell line); test: Ketone (β-hydroxybutyrate) production in mouse liver cells; settings: for βHb production when combined with oleic acid vs OA alone: 1 μM to 10 μM test nutrient + 100 μM OA; for βHb production when combined with fatty acid blend (K-one) vs blend alone: 1 μM to 10 μM test nutrient + 100 μM fatty acid blend; for Ketone production in the absence of a ketogenic fat blend: 5 μM each, alone or in combination; for Effect of combining with fatty acid blend on βHb production vs sum of individual effects: with 100 μM K-one fatty acid blend; for Effect of combining with OA on βHb production vs sum of individual effects: 1 μM to 10 μM + 100 μM OA; for βHb production, provided alone: test nutrient alone at 1 μM, 5 μM and 10 μM, no OA or fat blend, 6 hours
Description: An assay to measure ketone production in mouse liver cells (Hepa1-6 cell line) was used wherein cells were first grown to a monolayer (growth phase), then exposed to starvation to deplete cellular lipid stores and subsequently brought into a ketogenic phase wherein cells were cultured in presence of oleic acid or a ketogenic diet fat blend with or without the presence of one of C2 fatty acid, C4 fatty acid, C6 fatty acid, citric acid and nicotinamide riboside. The ketone body production was subsequently determined by measurement of beta-hydroxybutyrate in the cell culture medium according to the details set out below:
Starvation phase: At the end of the growth phase the cells formed a monolayer. The medium was exchanged for DMEM containing 1 mM glucose and antibiotics (1% penicillin & streptomycin) but no FBS. The medium was further supplemented with L-carnitine (a required co-factor for the uptake of fatty acids into the mitochondria, where fatty acids are turned into ketones). The cells were incubated in this medium for 24 hours. During this time, the cells were vastly deprived of glucose, lipids and hormones contained in FBS, forcing them to consume and empty their lipid stores. […] Moreover, the starvation phase is thought to induce specific metabolic changes that maximize the production of ketones.
Ketogenic phase: At the end of the starvation phase, the medium was exchanged for Krebs-Henseleit buffer (KHB) supplemented with the L-carnitine and the test nutrients (table 1, single fatty acids C2, C4, C6 and citrate, nicotinamide riboside in combination with oleic acid fatty acid blend).
The fatty acid blend has a similar fatty acid composition as the one used in a ketogenic diet (K-one). The content of every fatty acid in the blend is given as the molar ratio to Oleic acid (OA), whose molar content is set to 1. Dilutions of this blend were used to determine the dose response curve in FIGS. 1B and 1D. C2 and C4 are not included in the blend.
KHB is composed of salts and bicarbonate as a chemical buffer to maintain the osmotic pressure and acidity (pH) at physiological levels. Medium and long chain fatty acids are coupled to bovine serum albumin prior to the assay to make them soluble in KHB and allow their efficient uptake by the cells. The coupling is physiological since in humans, medium and long chain fatty acids are normally coupled to albumin for transport in the blood circulation. Short chain fatty acids (C2, C4) were not coupled to albumin in the assay as they are water-soluble and circulate freely in humans. The cells were incubated for 6 hours at 37° C. During this time they produce ketones from the test nutrients with little to no interference from other nutrients and secrete β-hydroxybutyrate (β) into the medium.
β-Hb measurements: At the end of the ketogenic phase, the whole medium was collected and dried by vacuum centrifugation for 20 hours at 21° C. The dry pellet was resuspended in a small volume of assay buffer to yield a 10-20-fold higher β-Hb concentration than in the medium. The samples were deproteinized using spin columns to measure the free unbound fraction of β-Hb. […] The Fluorescence was measured on a fluorescence microplate reader and is directly proportional to the β-Hb concentration in the sample within a range of 0.1 μM to 50 μM β-Hb.

[2] = test system: NAD+ depleted mouse liver cells (Hepa1-6 cells); test: NAD+ replenishment of NAD+ depleted mouse liver cells under ketogenic diet-like conditions
Description: A ketogenic diet treatment leads to great consumption of NAD+ and other metabolically relevant NAD+ derivatives such as NADP+ creating a state of NAD+ exhaustion. Therefore, it was hypothesized that nicotinamide riboside (NR) may replenish NAD+ and thus sustains ketone production more effectively in liver cells than other NAD+ precursors including nicotinamide (NAM), nicotinic acid (NA), Niacin (defined as the combination of NA and NAM) or the amino acid tryptophan (Trp). While NA and NAM have been commonly referred to as vitamin B3, NR is a recently discovered and naturally occurring vitamin B3 member. An assay was developed to measure NAD+ replenishment of NAD+ depleted mouse liver cells (Hepa1-6 cells) by NAD+ precursors under ketogenic diet-like conditions. In this assay, mouse liver cells were starved of glucose and depleted of NAD+ through incubation in a very low glucose (1 mM) medium free of vitamin B3, tryptophan (Trp) and FBS and supplemented with 10 nM of an NAD+ depleting drug called FK866. Thereafter, the cells were fed with NR or NAM or Niacin (combination of NAM and NA in a 1:1 molar ratio) or Trp to replenish NAD+. At the end of the supplementation phase, the cells were scraped and extracted using the NAD+ extraction buffer of the EnzyChrom™ NAD/NADH Assay Kit from BioAssay Systems. The NAD+ content of the cells was determined with the same kit following the manufacturer's manual. The NAD+ measurement is based on a lactate dehydrogenase reaction, in which NAD+ is reduced to NADH, which in turn reduces a formazan (MTT) reagent. The intensity of the reduced product colour, measured at 565 nm, is proportional to the NAD+ concentration in the sample. This assay is highly specific for NAD+ and has minimal interference (<1%) by NADP+ or NADPH.

[3] = test system: NAD+ depleted mouse liver cells; test: Ketone production of NAD+ depleted liver cells after NR replenishment; settings: NR 10 μM, 150 μM and 1000 μM
Description: To measure the impact of replenishing NAD+ in liver cells with NR on ketone production, mouse liver cells were nutrient-deprived in medium containing low (1 mM) glucose, no fetal bovine serum, and no NAD+ precursors in the form of vitamin B3 (Niacin, NA, NAM) or Trp, but supplemented with L-carnitine.
Concomitantly the cells were treated with FK866. These conditions created ketogenic diet like nutrient conditions and depleted the cells of NAD+ After 18 hours of incubation, FK866 was removed from the medium and a concentration range of NR was added for the replenishment of NAD+. After 24 hours, the cells were switched to Krebs-Henseleit buffer (KHB) containing L-carnitine and a concentration range (1 μM to 100 μM) of oleic acid, a long chain fatty acid, for 6 hours to induce and measure the production and secretion of b-hydroxybutyrate (βHB) into the medium.

## CCCCCC(=O)O [C6, caproic acid]
[1]
  βHb production when combined with oleic acid vs OA alone: potentiates the production of ketones
  βHb production when combined with fatty acid blend (K-one) vs blend alone: potentiates the production of ketones
  Ketone production in the absence of a ketogenic fat blend: hardly any ketones
  Effect of combining with fatty acid blend on βHb production vs sum of individual effects: more than additive
[1]; dose-response curve 1 μM to 100 μM, alone
  Concentration above which the fatty acid starts to be turned into βHb (substrate): above 10 μM

## CCCCCCCC/C=C\CCCCCCCC(=O)O [OA, oleic acid, reference compound]
[1]; dose-response curve, substrate alone
  Concentration at which top-level production of ketones is achieved: 100 µM

## O=C(O)CC(O)(CC(=O)O)C(=O)O [citrate, citric acid]
[1]; citrate 200 μM to 1000 μM + 100 μM K-one fat blend
  Increase of ketone production from the fat blend: 10-20%
[1]; citrate alone, no fat blend
  Ketone production, citrate alone: no ketones
[1]
  Effect of combining with fatty acid blend on βHb production vs sum of individual effects: clearly greater than the sum

## O=C(/C=C/c1cccnc1)NCCCCC1CCN(C(=O)c2ccccc2)CC1 [FK866, reference compound]
[2]; 10 nM FK866
  Depletion of NAD+ relative to baseline NAD+ content of untreated liver cells: ~70%

## CCCC(=O)O [C4, butyric acid]
[1]
  Effect of combining with OA on βHb production vs sum of individual effects: more than additive
  βHb production when combined with oleic acid vs OA alone: more βHb than providing 100 μM OA alone
  βHb production when combined with fatty acid blend (K-one) vs blend alone: more βHb than providing the 100 μM fatty acid blend alone
  Ketone production in the absence of a ketogenic fat blend: hardly any ketones
  βHb production, provided alone: hardly yielded any βHb; also recorded: no βHb
  Effect of combining with fatty acid blend on βHb production vs sum of individual effects: more than additive
[1]; fixed 10 μM C4 + 1 μM to 100 μM fatty acid blend vs blend without C4
  Production of ketones from fatty acid blend concentration range: increasingly enhanced the production of ketones

## CC(=O)O [C2, ethanoic acid]
[1]
  Effect of combining with OA on βHb production vs sum of individual effects: more than additive
  βHb production when combined with oleic acid vs OA alone: more βHb than 100 μM OA alone
  βHb production when combined with fatty acid blend (K-one) vs blend alone: slightly greater production of βHb
  βHb production, provided alone: virtually no bHB; also recorded: no βHb
  Effect of combining with fatty acid blend on βHb production vs sum of individual effects: more than additive

## NC(=O)c1ccc[n+]([C@@H]2O[C@H](CO)[C@@H](O)[C@H]2O)c1 [NR, nicotinamide riboside]
[2]; NAD+ depleted cells, within 24 hours of treatment
  NAD+ content replenishment: dose-dependently replenishes NAD+ content to and above this baseline
[2]; high concentrations of 1 mM
  Increase of NAD+ content vs equimolar NAM or Niacin: significantly greater extent than equimolar amounts of NAM or Niacin
[2]; lower concentrations below 150 μM
  Increase of NAD+ content vs equimolar Niacin: greater extent than equimolar amounts of Niacin
[3]; NAD+ depleted cells, oleic acid 1 μM to 100 μM, 6 hours
  Top-level production of ketones: increased the top-level production of ketones
[3]; ketogenic diet like nutrient conditions
  NAD+ content: increased
